From the kinase profiling compilation of Christmann-Franck et al. (2016)

How the values were obtained:
Experiment in all cases: Free Choice Kinase Assay Projects, Flashplate
CDK2 CCNA2 (human) = CDK2 CCNA2 (human) (UniProt P24941+P20248); conditions: compound 10.0 µM; ATP 0.3 µM
EGFR (human) = EGFR (human) (UniProt P00533); conditions: compound 10.0 µM; ATP 0.3 µM
PDGFRB (human) = PDGFRB (human) (UniProt P09619); conditions: compound 10.0 µM; ATP 0.3 µM
AURKB (human) = AURKB (human) (UniProt Q96GD4); conditions: compound 10.0 µM; ATP 10 µM
Chain of AURKB (human) (Q96GD4 whole entry, looked up): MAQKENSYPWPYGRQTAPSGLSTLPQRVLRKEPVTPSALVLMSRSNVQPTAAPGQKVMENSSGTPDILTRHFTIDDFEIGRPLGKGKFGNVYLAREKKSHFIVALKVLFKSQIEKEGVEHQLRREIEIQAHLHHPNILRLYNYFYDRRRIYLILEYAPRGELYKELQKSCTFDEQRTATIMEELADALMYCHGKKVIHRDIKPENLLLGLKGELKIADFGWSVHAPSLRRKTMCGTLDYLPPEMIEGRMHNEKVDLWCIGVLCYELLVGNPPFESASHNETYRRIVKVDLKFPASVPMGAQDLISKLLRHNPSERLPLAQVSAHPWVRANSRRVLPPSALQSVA

SRC (human) = SRC (human) (UniProt P12931); conditions: compound 10.0 µM; ATP 0.3 µM
TEK (human) = TEK (human) (UniProt Q02763); conditions: compound 10.0 µM; ATP 1 µM
ERBB2 (human) = ERBB2 (human) (UniProt P04626); conditions: compound 10.0 µM; ATP 1 µM
MAP3K8 (human) = MAP3K8 (human) (UniProt P41279); conditions: compound 10.0 µM; ATP 3 µM
IGF1R (human) = IGF1R (human) (UniProt P08069); conditions: compound 10.0 µM; ATP 1 µM
AKT1 (human) = AKT1 (human) (UniProt P31749); conditions: compound 10.0 µM; ATP 3 µM
PLK4 (human) = PLK4 (human) (UniProt O00444); conditions: compound 10.0 µM; ATP 0.3 µM
Chain of PLK4 (human) (O00444 whole entry, looked up): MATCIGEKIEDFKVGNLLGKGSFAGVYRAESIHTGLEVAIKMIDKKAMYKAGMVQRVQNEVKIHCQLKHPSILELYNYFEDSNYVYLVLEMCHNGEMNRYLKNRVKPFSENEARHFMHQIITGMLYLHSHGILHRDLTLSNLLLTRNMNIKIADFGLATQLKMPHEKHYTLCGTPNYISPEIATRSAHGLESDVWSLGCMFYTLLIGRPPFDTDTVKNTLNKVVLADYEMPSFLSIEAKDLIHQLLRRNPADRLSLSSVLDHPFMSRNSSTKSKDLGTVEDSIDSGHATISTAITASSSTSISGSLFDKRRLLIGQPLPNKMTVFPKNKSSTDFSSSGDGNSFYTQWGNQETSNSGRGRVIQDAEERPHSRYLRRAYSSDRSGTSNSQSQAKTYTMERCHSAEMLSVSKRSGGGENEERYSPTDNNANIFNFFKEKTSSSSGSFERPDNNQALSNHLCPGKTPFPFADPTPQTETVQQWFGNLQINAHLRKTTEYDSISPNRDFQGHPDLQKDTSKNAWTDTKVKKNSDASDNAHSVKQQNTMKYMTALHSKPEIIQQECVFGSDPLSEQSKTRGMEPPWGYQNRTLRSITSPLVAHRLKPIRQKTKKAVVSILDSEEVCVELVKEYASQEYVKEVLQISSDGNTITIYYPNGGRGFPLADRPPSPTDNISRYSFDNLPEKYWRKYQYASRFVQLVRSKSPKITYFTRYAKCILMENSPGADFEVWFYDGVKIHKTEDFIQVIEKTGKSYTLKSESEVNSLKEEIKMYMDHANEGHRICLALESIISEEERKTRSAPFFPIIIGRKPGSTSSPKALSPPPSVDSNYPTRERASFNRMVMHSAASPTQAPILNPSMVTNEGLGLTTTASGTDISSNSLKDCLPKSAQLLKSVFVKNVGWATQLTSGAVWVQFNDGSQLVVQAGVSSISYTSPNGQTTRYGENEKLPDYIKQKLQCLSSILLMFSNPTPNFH

PLK1 (human) = PLK1 (human) (UniProt P53350); conditions: compound 10.0 µM; ATP 1 µM
AURKA (human) = AURKA (human) (UniProt O14965); conditions: compound 10.0 µM; ATP 10 µM
CDK4 CCND1 (human) = CDK4 CCND1 (human) (UniProt P11802+P24385); conditions: compound 10.0 µM; ATP 3 µM
Chain of CDK4 CCND1 (human) (P11802 whole entry, looked up): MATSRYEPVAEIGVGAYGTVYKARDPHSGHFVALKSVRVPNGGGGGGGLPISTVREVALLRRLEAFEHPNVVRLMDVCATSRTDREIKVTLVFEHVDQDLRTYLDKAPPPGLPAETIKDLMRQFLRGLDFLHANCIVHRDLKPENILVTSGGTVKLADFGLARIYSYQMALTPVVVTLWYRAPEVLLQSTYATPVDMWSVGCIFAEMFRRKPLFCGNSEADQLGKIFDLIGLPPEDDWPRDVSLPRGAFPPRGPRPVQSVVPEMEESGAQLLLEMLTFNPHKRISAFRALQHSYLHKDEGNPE
Chain of CDK4 CCND1 (human) (P24385 whole entry, looked up): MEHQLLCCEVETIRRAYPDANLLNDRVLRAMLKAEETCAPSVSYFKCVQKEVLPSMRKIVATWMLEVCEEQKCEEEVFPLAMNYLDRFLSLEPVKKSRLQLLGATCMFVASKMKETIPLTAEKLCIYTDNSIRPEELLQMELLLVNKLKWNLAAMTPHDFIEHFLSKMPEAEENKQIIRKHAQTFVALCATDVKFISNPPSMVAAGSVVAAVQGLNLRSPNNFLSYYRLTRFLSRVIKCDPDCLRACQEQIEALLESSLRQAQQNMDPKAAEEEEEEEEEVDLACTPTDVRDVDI

CSNK2A1 (human) = CSNK2A1 (human) (UniProt P68400); conditions: compound 10.0 µM; ATP 0.1 µM
EPHB4 (human) = EPHB4 (human) (UniProt P54760); conditions: compound 10.0 µM; ATP 1 µM
AXL (human) = AXL (human) (UniProt P30530); conditions: compound 10.0 µM; ATP 0.3 µM
NUAK1 (human) = NUAK1 (human) (UniProt O60285); conditions: compound 10.0 µM; ATP 1 µM
[1] = tested on: BRAF (human), P15056 [V600E]; conditions: compound 10.0 µM; ATP 3 µM
PTK2 (human) = PTK2 (human) (UniProt Q05397); conditions: compound 10.0 µM; ATP 1 µM
MAPK14 (human) = MAPK14 (human) (UniProt Q16539); conditions: compound 10.0 µM; ATP 1 µM
KDR (human) = KDR (human) (UniProt P35968); conditions: compound 10.0 µM; ATP 1 µM
MET (human) = MET (human) (UniProt P08581); conditions: compound 10.0 µM; ATP 0.3 µM
Chain of MET (human) (P08581 whole entry, looked up): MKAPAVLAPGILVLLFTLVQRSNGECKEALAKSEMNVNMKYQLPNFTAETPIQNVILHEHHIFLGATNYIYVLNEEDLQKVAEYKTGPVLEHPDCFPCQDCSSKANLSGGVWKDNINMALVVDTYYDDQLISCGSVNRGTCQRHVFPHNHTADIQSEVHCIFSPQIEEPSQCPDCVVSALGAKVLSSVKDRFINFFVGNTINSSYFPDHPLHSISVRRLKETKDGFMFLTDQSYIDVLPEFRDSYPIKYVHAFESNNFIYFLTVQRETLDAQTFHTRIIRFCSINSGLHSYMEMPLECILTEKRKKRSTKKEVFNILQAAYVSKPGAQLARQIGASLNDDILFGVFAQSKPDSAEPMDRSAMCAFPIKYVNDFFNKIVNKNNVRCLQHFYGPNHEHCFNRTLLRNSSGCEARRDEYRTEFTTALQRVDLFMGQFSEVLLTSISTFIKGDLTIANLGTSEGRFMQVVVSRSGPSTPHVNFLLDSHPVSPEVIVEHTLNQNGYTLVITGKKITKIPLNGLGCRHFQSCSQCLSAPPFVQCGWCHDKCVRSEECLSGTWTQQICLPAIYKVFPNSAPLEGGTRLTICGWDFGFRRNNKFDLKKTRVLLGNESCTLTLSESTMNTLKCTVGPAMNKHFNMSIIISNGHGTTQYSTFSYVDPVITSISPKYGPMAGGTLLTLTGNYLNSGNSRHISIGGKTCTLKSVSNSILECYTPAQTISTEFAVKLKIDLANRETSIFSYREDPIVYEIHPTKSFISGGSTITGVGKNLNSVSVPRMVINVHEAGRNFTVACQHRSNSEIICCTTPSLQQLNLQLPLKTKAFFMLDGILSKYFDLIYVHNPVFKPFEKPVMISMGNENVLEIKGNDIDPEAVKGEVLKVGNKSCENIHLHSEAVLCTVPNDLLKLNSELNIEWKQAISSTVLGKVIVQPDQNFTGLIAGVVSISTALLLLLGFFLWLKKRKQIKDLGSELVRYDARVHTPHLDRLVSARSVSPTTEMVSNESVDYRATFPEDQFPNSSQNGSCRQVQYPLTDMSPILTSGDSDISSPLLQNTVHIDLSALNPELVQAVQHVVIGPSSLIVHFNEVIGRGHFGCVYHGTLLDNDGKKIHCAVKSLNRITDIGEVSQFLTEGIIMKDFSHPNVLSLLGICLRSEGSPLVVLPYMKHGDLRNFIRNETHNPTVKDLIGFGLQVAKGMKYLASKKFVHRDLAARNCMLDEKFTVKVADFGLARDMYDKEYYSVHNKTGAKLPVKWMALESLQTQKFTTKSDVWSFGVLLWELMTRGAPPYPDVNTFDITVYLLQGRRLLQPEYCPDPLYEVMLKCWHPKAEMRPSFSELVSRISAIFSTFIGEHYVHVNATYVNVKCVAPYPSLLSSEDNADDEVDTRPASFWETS

MAPK10 (human) = MAPK10 (human) (UniProt P53779); conditions: compound 10.0 µM; ATP 0.3 µM
Chain of MAPK10 (human) (P53779 whole entry, looked up): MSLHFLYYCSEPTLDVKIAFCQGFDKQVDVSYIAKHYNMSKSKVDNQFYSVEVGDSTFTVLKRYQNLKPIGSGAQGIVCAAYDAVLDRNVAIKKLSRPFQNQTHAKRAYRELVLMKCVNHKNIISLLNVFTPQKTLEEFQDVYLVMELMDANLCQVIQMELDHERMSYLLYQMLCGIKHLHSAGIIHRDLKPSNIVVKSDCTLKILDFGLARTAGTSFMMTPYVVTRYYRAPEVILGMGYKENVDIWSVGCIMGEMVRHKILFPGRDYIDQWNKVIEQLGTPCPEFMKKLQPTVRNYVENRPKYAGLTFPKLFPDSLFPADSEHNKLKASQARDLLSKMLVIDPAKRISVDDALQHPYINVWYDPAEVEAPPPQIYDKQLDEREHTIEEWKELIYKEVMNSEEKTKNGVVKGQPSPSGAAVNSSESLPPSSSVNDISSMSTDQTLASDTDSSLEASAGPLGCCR

Chain of PDGFRB (human) (P09619 whole entry, looked up): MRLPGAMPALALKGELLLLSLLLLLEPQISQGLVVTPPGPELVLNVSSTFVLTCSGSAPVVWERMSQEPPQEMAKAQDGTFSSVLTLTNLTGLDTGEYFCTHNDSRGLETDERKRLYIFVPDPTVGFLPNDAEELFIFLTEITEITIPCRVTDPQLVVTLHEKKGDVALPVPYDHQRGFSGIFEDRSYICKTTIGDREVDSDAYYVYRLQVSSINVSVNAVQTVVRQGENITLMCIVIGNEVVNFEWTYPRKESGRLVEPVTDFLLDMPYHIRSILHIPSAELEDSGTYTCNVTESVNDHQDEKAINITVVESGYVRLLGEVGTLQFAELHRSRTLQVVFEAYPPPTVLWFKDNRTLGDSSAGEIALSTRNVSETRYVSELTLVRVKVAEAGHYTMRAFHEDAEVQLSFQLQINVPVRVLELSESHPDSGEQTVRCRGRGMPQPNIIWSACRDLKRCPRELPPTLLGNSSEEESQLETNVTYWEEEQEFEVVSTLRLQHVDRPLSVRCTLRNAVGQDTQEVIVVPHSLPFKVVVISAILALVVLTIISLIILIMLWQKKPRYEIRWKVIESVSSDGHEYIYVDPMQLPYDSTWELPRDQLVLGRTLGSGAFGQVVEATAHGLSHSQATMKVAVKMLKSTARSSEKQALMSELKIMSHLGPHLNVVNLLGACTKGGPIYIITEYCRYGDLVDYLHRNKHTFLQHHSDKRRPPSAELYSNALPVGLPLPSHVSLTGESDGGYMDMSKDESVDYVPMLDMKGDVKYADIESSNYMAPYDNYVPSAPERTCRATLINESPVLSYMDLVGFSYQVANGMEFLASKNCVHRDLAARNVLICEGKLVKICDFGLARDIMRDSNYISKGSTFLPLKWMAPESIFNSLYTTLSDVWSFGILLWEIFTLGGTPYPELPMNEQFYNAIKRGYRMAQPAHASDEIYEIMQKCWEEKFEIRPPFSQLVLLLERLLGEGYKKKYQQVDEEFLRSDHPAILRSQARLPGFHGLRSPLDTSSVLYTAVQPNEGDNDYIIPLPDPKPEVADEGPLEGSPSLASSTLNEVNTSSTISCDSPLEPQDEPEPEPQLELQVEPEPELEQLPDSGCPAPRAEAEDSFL

Oc1ccc(CSc2nc(-c3ccncc3)c(-c3ccc(F)cc3)[nH]2)cc1
residual activity (CDK2 CCNA2 (human)): 117% | residual activity (EGFR (human)): 20% | residual activity (PDGFRB (human)): 65% | residual activity (AURKB (human)): 78% | residual activity (SRC (human)): 34% | residual activity (TEK (human)): 33% | residual activity (ERBB2 (human)): 22% | residual activity (MAP3K8 (human)): 96% | residual activity (IGF1R (human)): 104% | residual activity (AKT1 (human)): 130% | residual activity (PLK4 (human)): 51% | residual activity (PLK1 (human)): 120% | residual activity (AURKA (human)): 64% | residual activity (CDK4 CCND1 (human)): 103% | residual activity (CSNK2A1 (human)): 107% | residual activity (EPHB4 (human)): 42% | residual activity (AXL (human)): 91% | residual activity (NUAK1 (human)): 126% | residual activity [1]: 5% | residual activity (PTK2 (human)): 99% | residual activity (MAPK14 (human)): 4% | residual activity (KDR (human)): 26% | residual activity (MET (human)): 78% | residual activity (MAPK10 (human)): 48%

CSc1nc(-c2ccnc(NC(C)=O)c2)c(-c2ccc(F)cc2)n1C
residual activity (CDK2 CCNA2 (human)): 111% | residual activity (EGFR (human)): 17% | residual activity (PDGFRB (human)): 26% | residual activity (AURKB (human)): 78% | residual activity (SRC (human)): 29% | residual activity (TEK (human)): 24% | residual activity (ERBB2 (human)): 31% | residual activity (MAP3K8 (human)): 74% | residual activity (IGF1R (human)): 78% | residual activity (AKT1 (human)): 154% | residual activity (PLK4 (human)): 70% | residual activity (PLK1 (human)): 109% | residual activity (AURKA (human)): 58% | residual activity (CDK4 CCND1 (human)): 102% | residual activity (CSNK2A1 (human)): 88% | residual activity (EPHB4 (human)): 32% | residual activity (AXL (human)): 52% | residual activity (NUAK1 (human)): 104% | residual activity (PTK2 (human)): 71% | residual activity (MAPK14 (human)): 1% | residual activity (KDR (human)): 13% | residual activity (MET (human)): 79% | residual activity (MAPK10 (human)): 11%

Fc1ccc(-c2[nH]c(SCc3ccccc3)nc2-c2ccnc(F)c2)cc1
residual activity (CDK2 CCNA2 (human)): 71% | residual activity (EGFR (human)): 17% | residual activity (PDGFRB (human)): 70% | residual activity (AURKB (human)): 85% | residual activity (SRC (human)): 18% | residual activity (TEK (human)): 34% | residual activity (ERBB2 (human)): 9% | residual activity (MAP3K8 (human)): 106% | residual activity (IGF1R (human)): 41% | residual activity (AKT1 (human)): 155% | residual activity (PLK4 (human)): 128% | residual activity (PLK1 (human)): 131% | residual activity (AURKA (human)): 93% | residual activity (CDK4 CCND1 (human)): 109% | residual activity (CSNK2A1 (human)): 86% | residual activity (EPHB4 (human)): 77% | residual activity (AXL (human)): 75% | residual activity (NUAK1 (human)): 127% | residual activity (PTK2 (human)): 90% | residual activity (MAPK14 (human)): 7% | residual activity (KDR (human)): 32% | residual activity (MET (human)): 76% | residual activity (MAPK10 (human)): 88%

On1c(CCc2ccccc2)nc(-c2ccncc2)c1-c1ccc(F)cc1
residual activity (CDK2 CCNA2 (human)): 54% | residual activity (EGFR (human)): 1% | residual activity (PDGFRB (human)): 37% | residual activity (AURKB (human)): 41% | residual activity (SRC (human)): 4% | residual activity (TEK (human)): 18% | residual activity (ERBB2 (human)): 2% | residual activity (MAP3K8 (human)): 78% | residual activity (IGF1R (human)): 17% | residual activity (AKT1 (human)): 144% | residual activity (PLK4 (human)): 16% | residual activity (PLK1 (human)): 100% | residual activity (AURKA (human)): 44% | residual activity (CDK4 CCND1 (human)): 84% | residual activity (CSNK2A1 (human)): 82% | residual activity (EPHB4 (human)): 32% | residual activity (AXL (human)): 79% | residual activity (NUAK1 (human)): 100% | residual activity (PTK2 (human)): 87% | residual activity (MAPK14 (human)): 0% | residual activity (KDR (human)): 4% | residual activity (MET (human)): 44% | residual activity (MAPK10 (human)): 14%

Fc1ccc(-c2[nH]c(SCCc3ccccc3)nc2-c2ccncc2)cc1
residual activity (CDK2 CCNA2 (human)): 72% | residual activity (EGFR (human)): 24% | residual activity (PDGFRB (human)): 80% | residual activity (AURKB (human)): 78% | residual activity (SRC (human)): 43% | residual activity (TEK (human)): 51% | residual activity (ERBB2 (human)): 41% | residual activity (MAP3K8 (human)): 69% | residual activity (IGF1R (human)): 43% | residual activity (AKT1 (human)): 122% | residual activity (PLK4 (human)): 56% | residual activity (PLK1 (human)): 93% | residual activity (AURKA (human)): 75% | residual activity (CDK4 CCND1 (human)): 59% | residual activity (CSNK2A1 (human)): 96% | residual activity (EPHB4 (human)): 48% | residual activity (AXL (human)): 84% | residual activity (NUAK1 (human)): 77% | residual activity (PTK2 (human)): 95% | residual activity (MAPK14 (human)): 41% | residual activity (KDR (human)): 45% | residual activity (MET (human)): 66% | residual activity (MAPK10 (human)): 81%

CC(Nc1cc(-c2nc(SCc3ccccc3)[nH]c2-c2ccc(F)cc2)ccn1)c1ccccc1 (centres undefined)
residual activity (CDK2 CCNA2 (human)): 17% | residual activity (EGFR (human)): 16% | residual activity (PDGFRB (human)): 45% | residual activity (AURKB (human)): 58% | residual activity (SRC (human)): 14% | residual activity (TEK (human)): 13% | residual activity (ERBB2 (human)): 21% | residual activity (MAP3K8 (human)): 50% | residual activity (IGF1R (human)): 20% | residual activity (AKT1 (human)): 66% | residual activity (PLK4 (human)): 17% | residual activity (PLK1 (human)): 38% | residual activity (AURKA (human)): 64% | residual activity (CDK4 CCND1 (human)): 27% | residual activity (CSNK2A1 (human)): 78% | residual activity (EPHB4 (human)): 31% | residual activity (AXL (human)): 44% | residual activity (NUAK1 (human)): 43% | residual activity (PTK2 (human)): 82% | residual activity (MAPK14 (human)): 3% | residual activity (KDR (human)): 39% | residual activity (MET (human)): 43% | residual activity (MAPK10 (human)): 20%
